# Experimental data as given in PubChem BioAssay AID1918934 (Molecular Pharmacology Branch, DTP, NCI, 2023).
# Test system: 292921-168-R-J2-PDC complex spheroid viability
# Experiment: Anticancer human tumor 292921-168-R-J2-PDC patient-derived pancreatic carcinoma cell line growth inhibition
# Conditions: for IC50: curve of first compound; for viability, T/C: stronger effect = lower value
# In short: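 Drug combinations with the LSD1 inhibitor iadademstat tested on tumor cells co-cultured as spheroids with endothelial cells and mesenchymal stem cells. Concentrations descended in half-log increments from clinical Cmax or 10 microM.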
# [1] = second compound 0.1 µM, first compound 0.000316 µM
# [2] = second compound 0.1 µM, first compound 0.001 µM
# [3] = second compound 0.1 µM, first compound 0.00316 µM
# [4] = second compound 0.1 µM, first compound 0.01 µM
# [5] = second compound 0.1 µM, first compound 0.0316 µM
# [6] = second compound 0.1 µM, first compound 0.1 µM
# [7] = second compound 0.316 µM, first compound 0.000316 µM
# [8] = second compound 0.316 µM, first compound 0.001 µM
# [9] = second compound 0.316 µM, first compound 0.00316 µM
# [10] = second compound 0.316 µM, first compound 0.01 µM
# [11] = second compound 0.316 µM, first compound 0.0316 µM
# [12] = second compound 0.316 µM, first compound 0.1 µM
# [13] = second compound 1 µM, first compound 0.000316 µM
# [14] = second compound 1 µM, first compound 0.001 µM
# [15] = second compound 1 µM, first compound 0.00316 µM
# [16] = second compound 1 µM, first compound 0.01 µM
# [17] = second compound 1 µM, first compound 0.0316 µM
# [18] = second compound 1 µM, first compound 0.1 µM
# [19] = second compound 3.16 µM, first compound 0.000316 µM
# [20] = second compound 3.16 µM, first compound 0.001 µM
# [21] = second compound 3.16 µM, first compound 0.00316 µM
# [22] = second compound 3.16 µM, first compound 0.01 µM
# [23] = second compound 3.16 µM, first compound 0.0316 µM
# [24] = second compound 3.16 µM, first compound 0.1 µM
# [25] = second compound 10 µM, first compound 0.000316 µM
# [26] = second compound 10 µM, first compound 0.001 µM
# [27] = second compound 10 µM, first compound 0.00316 µM
# [28] = second compound 10 µM, first compound 0.01 µM
# [29] = second compound 10 µM, first compound 0.0316 µM
# [30] = second compound 10 µM, first compound 0.1 µM
# 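Further: seven day compound exposure before luminescent viability read.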
# 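Wherever viability, T/C is given: 100% = DMSO vehicle control wells.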
structure (smiles),measurement,setting,value
CC(C)CC(NC(=O)C(Cc1ccccc1)NC(=O)c1cnccn1)B(O)O (stereo not given) + NC1CCC(NC2CC2c2ccccc2)CC1,IC50,second compound 0.1 µM,< 0.316 nM
same,IC50,second compound 0.316 µM,< 0.316 nM
same,IC50,second compound 1 µM,< 0.316 nM
same,IC50,second compound 3.16 µM,< 0.316 nM
same,IC50,second compound 10 µM,< 0.316 nM
same,"viability, T/C",[1],16.3%
same,"viability, T/C",[2],0.63%
same,"viability, T/C",[3],0.17%
same,"viability, T/C",[4],0.16%
same,"viability, T/C",[5],0.11%
same,"viability, T/C",[6],0.14%
same,"viability, T/C",[7],15.9%
same,"viability, T/C",[8],0.67%
same,"viability, T/C",[9],0.21%
same,"viability, T/C",[10],3.23%
same,"viability, T/C",[11],0.17%
same,"viability, T/C",[12],0.19%
same,"viability, T/C",[13],16.1%
same,"viability, T/C",[14],0.64%
same,"viability, T/C",[15],0.24%
same,"viability, T/C",[16],0.12%
same,"viability, T/C",[17],0.26%
same,"viability, T/C",[18],0.25%
same,"viability, T/C",[19],13.8%
same,"viability, T/C",[20],0.62%
same,"viability, T/C",[21],0.17%
same,"viability, T/C",[22],0.1%
same,"viability, T/C",[23],0.08%
same,"viability, T/C",[24],0.16%
same,"viability, T/C",[25],12.2%
same,"viability, T/C",[26],0.55%
same,"viability, T/C",[27],0.22%
same,"viability, T/C",[28],0.19%
same,"viability, T/C",[29],0.14%
same,"viability, T/C",[30],0.47%
CC(C)CC(NC(=O)CNC(=O)c1cc(Cl)ccc1Cl)B1OC(=O)CC(CC(=O)O)(C(=O)O)O1 (stereo not given) + NC1CCC(NC2CC2c2ccccc2)CC1,IC50,second compound 0.1 µM,4.8 nM
same,IC50,second compound 0.316 µM,4.28 nM
same,IC50,second compound 1 µM,4.66 nM
same,IC50,second compound 3.16 µM,4.25 nM
same,IC50,second compound 10 µM,4.24 nM
same,"viability, T/C",[1],75.8%
same,"viability, T/C",[2],69.4%
same,"viability, T/C",[3],70.9%
same,"viability, T/C",[4],13.4%
same,"viability, T/C",[5],2.33%
same,"viability, T/C",[6],0.79%
same,"viability, T/C",[7],60.9%
same,"viability, T/C",[8],70.9%
same,"viability, T/C",[9],61.9%
same,"viability, T/C",[10],16.1%
same,"viability, T/C",[11],2.1%
same,"viability, T/C",[12],0.69%
same,"viability, T/C",[13],63.8%
same,"viability, T/C",[14],73%
same,"viability, T/C",[15],66.7%
same,"viability, T/C",[16],17.2%
same,"viability, T/C",[17],2.39%
same,"viability, T/C",[18],0.76%
same,"viability, T/C",[19],54.9%
same,"viability, T/C",[20],67%
same,"viability, T/C",[21],63.5%
same,"viability, T/C",[22],15.9%
same,"viability, T/C",[23],1.7%
same,"viability, T/C",[24],0.63%
same,"viability, T/C",[25],58.6%
same,"viability, T/C",[26],69%
same,"viability, T/C",[27],63.1%
same,"viability, T/C",[28],11.7%
same,"viability, T/C",[29],1.43%
same,"viability, T/C",[30],0.5%
Nc1ccccc1NC(=O)c1ccc(CNC(=O)OCc2cccnc2)cc1 + NC1CCC(NC2CC2c2ccccc2)CC1,IC50,second compound 0.1 µM,28.7 nM
same,IC50,second compound 0.316 µM,15.1 nM
same,IC50,second compound 1 µM,< 9.49 nM
same,IC50,second compound 3.16 µM,13.1 nM
same,IC50,second compound 10 µM,< 9.49 nM
same,"viability, T/C","second compound 0.1 µM, first compound 0.00949 µM",61.3%
same,"viability, T/C","second compound 0.1 µM, first compound 0.03 µM",48.3%
same,"viability, T/C","second compound 0.1 µM, first compound 0.0949 µM",34.6%
same,"viability, T/C","second compound 0.1 µM, first compound 0.3 µM",20.5%
same,"viability, T/C","second compound 0.1 µM, first compound 0.949 µM",3.31%
same,"viability, T/C","second compound 0.1 µM, first compound 3 µM",0.22%
same,"viability, T/C","second compound 0.316 µM, first compound 0.00949 µM",53.1%
same,"viability, T/C","second compound 0.316 µM, first compound 0.03 µM",45.2%
same,"viability, T/C","second compound 0.316 µM, first compound 0.0949 µM",34.6%
same,"viability, T/C","second compound 0.316 µM, first compound 0.3 µM",18.8%
same,"viability, T/C","second compound 0.316 µM, first compound 0.949 µM",3.86%
same,"viability, T/C","second compound 0.316 µM, first compound 3 µM",0.24%
same,"viability, T/C","second compound 1 µM, first compound 0.00949 µM",50.8%
same,"viability, T/C","second compound 1 µM, first compound 0.03 µM",39.9%
same,"viability, T/C","second compound 1 µM, first compound 0.0949 µM",33.4%
same,"viability, T/C","second compound 1 µM, first compound 0.3 µM",20.6%
same,"viability, T/C","second compound 1 µM, first compound 0.949 µM",3.16%
same,"viability, T/C","second compound 1 µM, first compound 3 µM",0.22%
same,"viability, T/C","second compound 3.16 µM, first compound 0.00949 µM",52.9%
same,"viability, T/C","second compound 3.16 µM, first compound 0.03 µM",43%
same,"viability, T/C","second compound 3.16 µM, first compound 0.0949 µM",27.2%
same,"viability, T/C","second compound 3.16 µM, first compound 0.3 µM",16.3%
same,"viability, T/C","second compound 3.16 µM, first compound 0.949 µM",2.26%
same,"viability, T/C","second compound 3.16 µM, first compound 3 µM",0.38%
same,"viability, T/C","second compound 10 µM, first compound 0.00949 µM",42.5%
same,"viability, T/C","second compound 10 µM, first compound 0.03 µM",39.5%
same,"viability, T/C","second compound 10 µM, first compound 0.0949 µM",26.8%
same,"viability, T/C","second compound 10 µM, first compound 0.3 µM",14.2%
same,"viability, T/C","second compound 10 µM, first compound 0.949 µM",0.79%
same,"viability, T/C","second compound 10 µM, first compound 3 µM",0.3%
O=C(c1cc(Cc2n[nH]c(=O)c3ccccc23)ccc1F)N1CCN(C(=O)C2CC2)CC1 + NC1CCC(NC2CC2c2ccccc2)CC1,IC50,second compound 0.1 µM,4520 nM
same,IC50,second compound 0.316 µM,3020 nM
same,IC50,second compound 1 µM,1060 nM
same,IC50,second compound 3.16 µM,1220 nM
same,IC50,second compound 10 µM,1300 nM
same,"viability, T/C",[5],63.7%
same,"viability, T/C",[6],65.6%
same,"viability, T/C","second compound 0.1 µM, first compound 0.316 µM",70.3%
same,"viability, T/C","second compound 0.1 µM, first compound 1 µM",58.6%
same,"viability, T/C","second compound 0.1 µM, first compound 3.16 µM",55%
same,"viability, T/C","second compound 0.1 µM, first compound 10 µM",39.5%
same,"viability, T/C",[11],61.5%
same,"viability, T/C",[12],59.8%
same,"viability, T/C","second compound 0.316 µM, first compound 0.316 µM",64.7%
same,"viability, T/C","second compound 0.316 µM, first compound 1 µM",57.1%
same,"viability, T/C","second compound 0.316 µM, first compound 3.16 µM",47.5%
same,"viability, T/C","second compound 0.316 µM, first compound 10 µM",36%
same,"viability, T/C",[17],55.5%
same,"viability, T/C",[18],58.6%
same,"viability, T/C","second compound 1 µM, first compound 0.316 µM",51.8%
same,"viability, T/C","second compound 1 µM, first compound 1 µM",51.9%
same,"viability, T/C","second compound 1 µM, first compound 3.16 µM",42.5%
same,"viability, T/C","second compound 1 µM, first compound 10 µM",31.8%
same,"viability, T/C",[23],55.4%
same,"viability, T/C",[24],54.5%
same,"viability, T/C","second compound 3.16 µM, first compound 0.316 µM",60%
same,"viability, T/C","second compound 3.16 µM, first compound 1 µM",50.3%
same,"viability, T/C","second compound 3.16 µM, first compound 3.16 µM",42%
same,"viability, T/C","second compound 3.16 µM, first compound 10 µM",34.9%
same,"viability, T/C",[29],53.9%
same,"viability, T/C",[30],54.4%
same,"viability, T/C","second compound 10 µM, first compound 0.316 µM",54.4%
same,"viability, T/C","second compound 10 µM, first compound 1 µM",52%
same,"viability, T/C","second compound 10 µM, first compound 3.16 µM",42.9%
same,"viability, T/C","second compound 10 µM, first compound 10 µM",32%
